# Assay results from US20070238660A1 (priority 2006, published 2007).
# Tested on: viruses
# Assay: Virus inactivation by fabric with attached dye under illumination
# Type: cell-based
# Settings: for virus inactivation (in words): low light illumination levels, FIG. 4
smiles,measurement,setting,value
Cc1cc2cc3cc(C)c(N)cc3nc2cc1N.Cl [acridine yellow G],viruses inactivated,exposure to light as low as 500 Lux,at least 99%
same,virus inactivation (in words),,unexpected efficiency in virus inactivation
same,virus inactivation (in words),listed as Acridine yellow G,very high virus inactivation
